The text below walks through data of patent US20150335549A1, “Oral Care Composition Containing Ionic Liquids” (COLGATE-PALMOLIVE COMPANY, priority 2012, published 2015).

The subject of test [1] is A. viscosus. Briefly: Growth inhibition of A. viscosus over 24 hours (bacterial optical density). Type of test: cell-based. The note with it: for Bacterial optical density, 4 h / Bacterial optical density, 22 h / Bacterial optical density, 24 h / Bacterial optical density, 0 h: 500 μl test sample added to 9.5 ml A. viscosus in TSB, 3 replicates; for Bacterial optical density, 0 h: initial O.D. The source says:
Bacterial optical density was captured every at 0, 4, 22 and 24 hrs.

Test [2] deals with biofilm of artificial mouth consortium (A. naeslundii, S. oralis, V. parvula, L. casei, F. nucleatum) of bacteria with S. mutans. The test is described as follows: In vitro biofilm removal: 3-day old multispecies oral biofilm on saliva-coated 24 well plate, optical density at 610 nm, % reduction from water control. The note with it: for impact on biofilm removal (in words): ingredient effect in mouthrinse formulations, 3-day old in-vitro oral biofilm; for % removal in High humectant mouthwash / % removal in Low humectant mouthwash: 3-day old biofilm.

Test [3] relates to 3-day biofilm. The test is described as follows: Design-of-experiments statistical analysis / D-Optimal Design prediction of 3-day biofilm removal. Conditions: glycerin 10%, propylene glycol 5%; for Percent biofilm removal: sorbitol 10%; for Percent biofilm removal if sorbitol at 20%: sorbitol 20%.
Description: A statistical design-of-experiments (DOE) approach was used to develop prototype mouth rinse formulations for biofilm removal. An 8 factor design was used. A mouth rinse was used a base formulation (see Table 3). […] The influence of the anti-bacterial agent cetyl pyridinium chloride (CPC) on biofilm removal was also evaluated. The sweetener sucralose and the flavor were at kept constant concentration in all the formulations.

As for `C=CCn1cc[n+](C)c1.[Cl-]` [1-ally1-3-methylimidazolium (AMIM) chloride], in test [1], the “Bacterial optical density, 4 h” value is reported as 0.2265; the “Bacterial optical density, 22 h” value turned out to be 0.7091; the “Bacterial optical density, 24 h” value was 0.8440; the “Bacterial optical density, 0 h” value was 0.1482.
For `CC(O)CO` (stereo not drawn) [propylene glycol], the “impact on biofilm removal (in words)” value in test [2] is “increases the percent of biofilm removal”.
With “1-ethy1-3-methylimidazolium (EMIM) bromide”, in test [1], the “Bacterial optical density, 4 h” value is 0.2216; the “Bacterial optical density, 22 h” value was 0.7598; the “Bacterial optical density, 24 h” value turned out to be 0.8533; the “Bacterial optical density, 0 h” value turned out to be 0.1482.
Take `C[N+](C)(C)CCO.[Cl-]` [Choline chloride]: in test [1], the “Bacterial optical density, 4 h” value amounted to 0.2445; the “Bacterial optical density, 22 h” value is listed as 1.0236; the “Bacterial optical density, 24 h” value is 1.0674; the “Bacterial optical density, 0 h” value is 0.1482.
The like results for Choline acetate were, in that order, 0.2559, 0.9480, 1.0385 and 0.1482.
For `C[N+](C)(C)CCO.O=C([O-])c1ccccc1O` [Choline salicylate, choline salicylate], in test [1], the “Bacterial optical density, 4 h” value worked out at 0.1523; the “Bacterial optical density, 22 h” value is recorded as 0.1542; the “Bacterial optical density, 24 h” value stood at 0.1539; the “Bacterial optical density, 0 h” value stood at 0.1482. Besides, in test [1] (formulated at 10% concentration in a mouth rinse), the “growth inhibition of A. viscosus (in words)” value is reported as “greater growth inhibition of A. viscosus than does a mouthrinse which contains 0.075% cetyl pyridinium chloride”. In test [3] (choline salicylate 10, TRIS 0), the Percent biofilm removal is 48% and the “Percent biofilm removal if sorbitol at 20%” value is on record as 53%. Besides, in test [3] (choline salicylate 20, TRIS 0), the Percent biofilm removal is given as 61% and the “Percent biofilm removal if sorbitol at 20%” value is on record as 66%.
In the case of `CCOS(=O)(=O)[O-].CCn1cc[n+](C)c1` [EMIM ethylsulfate], in test [1], the “Bacterial optical density, 4 h” value is reported as 0.2499; the “Bacterial optical density, 22 h” value came to 0.7514; the “Bacterial optical density, 24 h” value amounted to 0.7965; the “Bacterial optical density, 0 h” value is listed as 0.1482.
Regarding `OCC(O)CO` [glycerin], in test [2], the “impact on biofilm removal (in words)” value was “increases the percent of biofilm removal”.
Take `C[N+](CCO)(CCO)CCO` [Tris-HMAM, tris (2-hydroxyethyl) methylammonium methylsulfate]: the “% removal in High humectant mouthwash” value in test [2] (1% Tris-HMAM) came to 39.0%; in test [2] (2.5% Tris-HMAM) it was 50.5%; in test [2] (5% Tris-HMAM), 53.9%; in test [2] (10% Tris-HMAM), 57.7%; in test [2] (20% Tris-HMAM), 71.1%; in test [2] (40% Tris-HMAM), 73.2%. In addition, the “% removal in Low humectant mouthwash” value in test [2] (1% Tris-HMAM) turned out to be 25.6%; in test [2] (2.5% Tris-HMAM) it was 28.2%; in test [2] (5% Tris-HMAM) it was 30.9%; in test [2] (10% Tris-HMAM) it was 46.8%; in test [2] (20% Tris-HMAM) it was 57.3%; in test [2] (40% Tris-HMAM) it was 67.1%. Also, in test [2], the “impact on biofilm removal (in words)” value is recorded as “enhances biofilm removal”. For the same compound, in test [1], the “Bacterial optical density, 4 h” value was 0.2605. Moreover, the “Bacterial optical density, 22 h” value in test [1] is on record as 0.8415. In test [1], the “Bacterial optical density, 24 h” value stood at 0.9087. The “Bacterial optical density, 0 h” value in test [1] is reported as 0.1482. The Percent biofilm removal in test [3] (choline salicylate 0, TRIS 10) is 47%; in test [3] (choline salicylate 0, TRIS 20), 60%. For the same compound, the “Percent biofilm removal if sorbitol at 20%” value in test [3] (choline salicylate 0, TRIS 10) was 52%; in test [3] (choline salicylate 0, TRIS 20), 65%.
As to “1-buty1-3-methylimidazolium (BMIM) bromide”, in test [1], the “Bacterial optical density, 4 h” value is 0.2373; the “Bacterial optical density, 22 h” value was 0.5994; the “Bacterial optical density, 24 h” value came to 0.8244; the “Bacterial optical density, 0 h” value is listed as 0.1482.
Take `OC[C@@H](O)[C@@H](O)[C@H](O)[C@@H](O)CO` [sorbitol]: the “impact on biofilm removal (in words)” value in test [2] is listed as “increases the percent of biofilm removal”. Also, the “increase in biofilm removal” value in test [3] (20% sorbitol in the formulations) was roughly 5%.
For “1,2,4-trimethyl-pyrazolium methylsulfate”, in test [1], the “Bacterial optical density, 4 h” value worked out at 0.1978; the “Bacterial optical density, 22 h” value is listed as 0.8519; the “Bacterial optical density, 24 h” value is on record as 1.0042; the “Bacterial optical density, 0 h” value stood at 0.1482.
The like results for `CC(=O)[O-].CCn1cc[n+](C)c1` [EMIM acetate] were, in that order, 0.2324, 0.7942, 0.8223 and 0.1482.
